According to ChEMBL document CHEMBL1221363, “Cytotoxicity of new pyrazino[1,2-b]isoquinoline and 6,15-iminoisoquino[3,2-b]3-benzazocine compounds” (2010):

Legend:
Assay type in all cases: functional
MDA-MB-231 = assay: Cytotoxicity against human MDA-MB-231 cells after 48 hrs by SRB assay; settings: MDA-MB-231, 48 h; for CC50: read-out: LC50 (the source's name)
A549 = assay: Cytotoxicity against human A549 cells after 48 hrs by SRB assay; settings: A549, 48 h
HT-29 = assay: Cytotoxicity against human HT-29 cells after 48 hrs by SRB assay; settings: HT-29, 48 h

| SMILES | GI50 (MDA-MB-231) [µM] | TGI (MDA-MB-231) [µM] | CC50 (MDA-MB-231) [µM] | GI50 (A549) [µM] | LC50 (concentration causing 50% net cell kill) (A549) [µM] | TGI (A549) [µM] | GI50 (HT-29) [µM] | LC50 (HT-29) [µM] | TGI (HT-29) [µM] |
| --- | --- | --- | --- | --- | --- | --- | --- | --- | --- |
| COc1c(C)c(OC)c(OC)c2c1C[C@H]1[C@@H]3c4c(c(OC)c(C)c(OC)c4OC)C[C@H](C(=O)N1C2COC(=O)c1cccc2ccccc12)N3C (relative stereo) | 7.46 | > 14.4 | > 14.4 | 6.17 | > 14.4 | > 14.4 | 6.88 | > 14.6 | > 14.6 |
| COc1c(C)c(OC)c(OC)c2c1C[C@H]1[C@H]3c4ccccc4C[C@@H]([C@H](C#N)N1[C@H]2CO)N3C (relative stereo) | 7.65 | 12.9 | 18.7 | 5.78 | 18.7 | 12 | 5.17 | > 14.4 | > 14.4 |
| CCCN1CC(=O)N2[C@@H](Cc3c(OC)c(C)c(OC)c(OC)c3[C@@H]2COCc2ccccc2)C1 (relative stereo) | 16.6 | > 21.3 | > 21.3 | 10 | > 21.3 | > 21.3 | 11.2 | > 19 | > 19 |
| COc1c(C)c(OC)c(OC)c2c1C[C@H]1[C@@H](OC)N(C(=O)OC(C)C)[C@@H](Cc3ccccc3)C(=O)N1[C@H]2COCc1ccccc1 | 12.2 | > 15.8 | > 15.8 | 11.1 | > 15.8 | > 15.8 | 11.3 | > 18.8 | > 18.8 |
| COc1c(C)c(OC)c(OC)c2c1C[C@H]1[C@H]3c4ccccc4C[C@@H]([C@H](C#N)N1[C@H]2COC(=O)/C=C/c1cccc(C(F)(F)F)c1)N3C (relative stereo) | 2.47 | 2.62 | 2.78 | 2.32 | 3.86 | 2.93 | 3.25 | 6.5 | 4.52 |
| COc1c(C)c(OC)c(OC)c2c1C[C@H]1CN(C(=O)OC(C)(C)C)CC(=O)N1[C@H]2COCc1ccccc1 | 14.1 | > 19 | > 19 | 8.82 | > 19 | > 19 | 8.66 | > 18.4 | > 18.4 |
| COc1ccc(C[C@H]2C(=O)N3[C@@H](COCc4ccccc4)c4c(c(OC)c(C)c(OC)c4OC)C[C@H]3[C@@H](OC)N2C(=O)OC(C)(C)C)cc1OC | > 14.1 | > 14.1 | > 14.1 | 9.2 | > 14.1 | > 14.1 | 9.38 | > 14.4 | > 14.4 |
| COc1cc(C[C@H]2NC=C3Cc4c(OC)c(C)c(OC)c(OC)c4[C@H](COC(=O)/C=C/c4ccccc4)N3C2=O)c(OC)c(C)c1OC | 10.6 | > 15.2 | > 15.2 | 6.53 | > 15.2 | > 15.2 | 11.1 | > 14.6 | > 14.6 |
| COc1c(C)c(OC)c(OC)c2c1C[C@H]1[C@@H](O)N(C(=O)OC(C)C)CC(=O)N1[C@H]2COCc1ccccc1 | – | – | – | – | – | – | – | > 1.31 | – |
| COc1c(C)c(OC)c(OC)c2c1C[C@H]1[C@@H]3N[C@@H](Cc4ccccc43)C(=O)N1[C@H]2COC(=O)c1cccc2ccccc12 (relative stereo) | 8.64 | > 17.3 | > 17.3 | 13.3 | > 17.3 | > 17.3 | > 18.9 | > 18.9 | > 18.9 |
| COc1c(C)c(OC)c(OC)c2c1C[C@H]1N[C@@H]2[C@@H]2Cc3c(OC)c(C)c(OC)c(OC)c3[C@H](COC(=O)c3cccc4ccccc34)N2C1=O | 10.3 | > 14.6 | > 14.6 | 7.32 | > 14.6 | > 14.6 | 6.67 | > 18 | > 18 |
| COc1cc(C[C@@H]2NCC3=Cc4c(OC)c(C)c(OC)c(OC)c4[C@H](COC(=O)c4cccc5ccccc45)N3C2=O)c(OC)c(C)c1OC | 8.79 | > 14.6 | > 14.6 | 2.78 | > 14.6 | > 14.6 | 7.64 | > 14.1 | > 14.1 |
| COc1c(C)c(OC)c(OC)c2c1C[C@H]1CN(Cc3ccc4ccccc4c3[N+](=O)[O-])CC(=O)N1[C@H]2COCc1ccccc1 (relative stereo) | 8.01 | > 16.3 | > 16.3 | > 16.3 | > 16.3 | > 16.3 | 4.06 | 17.8 | 9.48 |
| COc1c(C)c(OC)c(OC)c2c1C[C@H]1CN(C(=O)OC(C)C)[C@@H](Cc3ccccc3)C(=O)N1[C@H]2COCc1ccccc1 | > 16.6 | > 16.6 | > 16.6 | > 16.6 | > 16.6 | > 16.6 | 16.3 | > 16.3 | > 16.3 |
| COc1c(C)c(OC)c(OC)c2c1C[C@H]1[C@H]3c4ccccc4C[C@@H](C(=O)N1[C@H]2COCc1ccccc1)N3C(=O)OC(C)C | 8.32 | > 16.6 | > 16.6 | > 16.6 | > 16.6 | > 16.6 | 12.3 | > 15.2 | > 15.2 |
| COc1c(C)c(OC)c(OC)c2c1C[C@H]1[C@@H](OC)N(C(=O)OC(C)C)CC(=O)N1[C@H]2COCc1ccccc1 | 12.3 | > 18.4 | > 18.4 | 11.2 | > 18.4 | > 18.4 | 0.195 | 0.527 | 0.273 |
| COc1c(C)c(OC)c(OC)c2c1C[C@H]1[C@H]3c4ccccc4C[C@@H](C(=O)N1[C@H]2CO)N3C(=O)OC(C)C | 17.6 | > 19.6 | > 19.6 | > 19.6 | > 19.6 | > 19.6 | 14 | > 16.6 | > 16.6 |
| COc1c(C)c(OC)c(OC)c2c1C[C@H]1CN(C)[C@@H](Cc3ccccc3)C(=O)N1[C@H]2COCc1ccccc1 | > 18.8 | > 18.8 | > 18.8 | 12.2 | > 18.8 | > 18.8 | 13 | > 16.2 | > 16.2 |
| COc1c(C)c(OC)c(OC)c2c1C[C@H]1CN(Cc3ccccc3)CC(=O)N1[C@H]2COCc1ccccc1 (relative stereo) | 11.2 | > 19.4 | > 19.4 | 7.16 | > 19.4 | 16.1 | 12 | > 21.3 | > 21.3 |
| COc1c(C)c(OC)c(OC)c2c1C[C@@H]1N[C@H]2[C@@H]2Cc3c(OC)c(C)c(OC)c(OC)c3[C@H](CO)N2C1=O (relative stereo) | 16.1 | > 18.9 | > 18.9 | > 18.9 | > 18.9 | > 18.9 | 12.3 | > 15.1 | > 15.1 |
| COc1c(C)c(OC)c(OC)c2c1C[C@H]1[C@H](C#N)N3[C@@H](CO)c4c(c(OC)c(C)c(OC)c4OC)C[C@H]3[C@@H]2N1C (relative stereo) | 4.7 | 9.03 | 14.1 | 3.43 | 13.2 | 8.13 | 7.12 | 15.1 | 10.5 |
| COc1c(C)c(OC)c(OC)c2c1C[C@H]1CN(C(=O)OC(C)C)CC(=O)N1[C@H]2COCc1ccccc1 | – | – | – | – | – | – | 8.32 | – | 9.84 |
| COc1cc2c(cc1O)CCN[C@]21CS[C@@H]2c3c(OC(C)=O)c(C)c4c(c3[C@H](COC1=O)N1[C@@H]2[C@H]2c3c(cc(C)c(OC)c3O)C[C@@H]([C@@H]1O)N2C)OCO4 [TRABECTEDIN] | 0.000396 | 0.00101 | 0.0017 | 0.00281 | – | 0.00315 | 2.47 | – | 2.93 |
| COc1ccc(C[C@H]2C(=O)N3[C@@H](COCc4ccccc4)c4c(c(OC)c(C)c(OC)c4OC)C[C@H]3[C@@H](OC)N2C(=O)OC(C)C)cc1OC | 9.53 | > 14.4 | > 14.4 | 6.21 | > 14.4 | > 14.4 | 12.3 | > 15.8 | > 15.8 |
| COc1c(C)c(OC)c(OC)c2c1C[C@H]1CN(C(=O)OC(C)(C)C)[C@@H](Cc3ccccc3)C(=O)N1[C@H]2COCc1ccccc1 | 7.13 | 10.5 | > 16.2 | 7.3 | > 16.2 | > 16.2 | 9.13 | > 16.6 | > 16.6 |
| COc1c(C)c(OC)c(OC)c2c1C[C@H]1[C@@H]3N[C@@H](Cc4ccccc43)C(=O)N1[C@H]2COC(=O)/C=C/c1ccccc1 (relative stereo) | 15 | > 18 | > 18 | 1.05 | > 18 | > 18 | 6.22 | > 17.3 | > 17.3 |
